{
  "source": "paper PMC4844702",
  "about": "“Selective inhibition of the kinase DYRK1A by targeting its folding process” (Nature Communications, 2016)",
  "assay_in_all_cases": "Kinase panel (Carna)",
  "assay_type_in_all_cases": "biochemical",
  "key": {"[1]": {"molecular_target": "T1, BRK (Homo sapiens, UniProt Q13882)", "T1 construct": "purchased Carna Biosciences", "source_text": "(§1) Detailed information on the assay conditions is available on the website of Carna Biosciences (http://www.carnabio.com)."}, "[2]": {"molecular_target": "T2, CSK (Homo sapiens, UniProt P41240)", "T2 construct": "purchased Carna Biosciences", "T2 sequence (P41240 whole entry)": "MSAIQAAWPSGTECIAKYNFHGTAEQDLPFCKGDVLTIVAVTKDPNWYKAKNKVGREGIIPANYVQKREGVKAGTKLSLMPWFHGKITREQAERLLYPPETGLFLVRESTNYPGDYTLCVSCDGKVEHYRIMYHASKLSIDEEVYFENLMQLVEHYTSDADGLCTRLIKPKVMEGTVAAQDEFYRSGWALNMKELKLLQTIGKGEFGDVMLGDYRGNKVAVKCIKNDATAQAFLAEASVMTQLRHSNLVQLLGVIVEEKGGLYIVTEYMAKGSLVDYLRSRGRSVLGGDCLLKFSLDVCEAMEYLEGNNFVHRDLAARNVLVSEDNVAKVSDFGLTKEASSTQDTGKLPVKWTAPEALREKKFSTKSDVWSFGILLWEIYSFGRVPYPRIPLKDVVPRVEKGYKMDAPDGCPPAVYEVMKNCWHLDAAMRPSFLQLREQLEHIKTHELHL", "source_text": "as §1"}, "[3]": {"molecular_target": "T3, EPHA6 (Homo sapiens, UniProt Q9UF33)", "T3 construct": "purchased Carna Biosciences"}, "[4]": {"molecular_target": "T4, EPHB1 (Homo sapiens, UniProt P54762)", "T4 construct": "purchased Carna Biosciences", "T4 sequence (P54762 18-984)": "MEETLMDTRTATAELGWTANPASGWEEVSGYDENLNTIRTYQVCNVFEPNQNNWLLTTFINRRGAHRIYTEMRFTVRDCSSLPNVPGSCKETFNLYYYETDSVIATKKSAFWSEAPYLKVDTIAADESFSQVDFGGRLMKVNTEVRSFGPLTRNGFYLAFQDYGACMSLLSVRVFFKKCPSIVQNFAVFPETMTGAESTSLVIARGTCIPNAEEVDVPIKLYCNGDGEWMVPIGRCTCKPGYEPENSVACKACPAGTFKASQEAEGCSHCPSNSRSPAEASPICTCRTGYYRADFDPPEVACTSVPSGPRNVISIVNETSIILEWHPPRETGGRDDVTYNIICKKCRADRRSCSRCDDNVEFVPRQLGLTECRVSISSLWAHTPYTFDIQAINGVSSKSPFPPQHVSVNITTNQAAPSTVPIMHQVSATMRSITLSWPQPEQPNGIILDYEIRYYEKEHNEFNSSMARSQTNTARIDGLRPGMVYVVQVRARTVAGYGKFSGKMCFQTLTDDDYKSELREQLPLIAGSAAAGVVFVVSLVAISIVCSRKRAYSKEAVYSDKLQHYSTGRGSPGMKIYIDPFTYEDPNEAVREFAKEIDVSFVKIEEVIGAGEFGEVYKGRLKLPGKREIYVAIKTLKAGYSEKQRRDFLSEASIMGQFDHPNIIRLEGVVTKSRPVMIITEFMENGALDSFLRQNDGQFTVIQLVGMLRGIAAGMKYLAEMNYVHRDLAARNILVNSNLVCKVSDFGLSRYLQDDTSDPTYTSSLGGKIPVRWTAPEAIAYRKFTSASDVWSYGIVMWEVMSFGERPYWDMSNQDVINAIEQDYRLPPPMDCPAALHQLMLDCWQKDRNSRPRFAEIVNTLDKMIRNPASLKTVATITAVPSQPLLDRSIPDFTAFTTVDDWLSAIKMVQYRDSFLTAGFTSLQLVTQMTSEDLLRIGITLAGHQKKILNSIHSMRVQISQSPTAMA", "source_text": "as §1"}, "[5]": {"molecular_target": "T5, FER (Homo sapiens, UniProt P16591)", "T5 construct": "purchased Carna Biosciences", "source_text": "as §1"}, "[6]": {"molecular_target": "T6, LYNb (Homo sapiens, UniProt P07948)", "T6 construct": "purchased Carna Biosciences", "source_text": "as §1"}, "[7]": {"molecular_target": "T7, FGFR3 (Homo sapiens, UniProt P22607)", "T7 construct": "purchased Carna Biosciences"}, "[8]": {"molecular_target": "T8, FLT1 (Homo sapiens, UniProt P17948)", "T8 construct": "purchased Carna Biosciences", "T8 sequence (P17948 27-1338)": "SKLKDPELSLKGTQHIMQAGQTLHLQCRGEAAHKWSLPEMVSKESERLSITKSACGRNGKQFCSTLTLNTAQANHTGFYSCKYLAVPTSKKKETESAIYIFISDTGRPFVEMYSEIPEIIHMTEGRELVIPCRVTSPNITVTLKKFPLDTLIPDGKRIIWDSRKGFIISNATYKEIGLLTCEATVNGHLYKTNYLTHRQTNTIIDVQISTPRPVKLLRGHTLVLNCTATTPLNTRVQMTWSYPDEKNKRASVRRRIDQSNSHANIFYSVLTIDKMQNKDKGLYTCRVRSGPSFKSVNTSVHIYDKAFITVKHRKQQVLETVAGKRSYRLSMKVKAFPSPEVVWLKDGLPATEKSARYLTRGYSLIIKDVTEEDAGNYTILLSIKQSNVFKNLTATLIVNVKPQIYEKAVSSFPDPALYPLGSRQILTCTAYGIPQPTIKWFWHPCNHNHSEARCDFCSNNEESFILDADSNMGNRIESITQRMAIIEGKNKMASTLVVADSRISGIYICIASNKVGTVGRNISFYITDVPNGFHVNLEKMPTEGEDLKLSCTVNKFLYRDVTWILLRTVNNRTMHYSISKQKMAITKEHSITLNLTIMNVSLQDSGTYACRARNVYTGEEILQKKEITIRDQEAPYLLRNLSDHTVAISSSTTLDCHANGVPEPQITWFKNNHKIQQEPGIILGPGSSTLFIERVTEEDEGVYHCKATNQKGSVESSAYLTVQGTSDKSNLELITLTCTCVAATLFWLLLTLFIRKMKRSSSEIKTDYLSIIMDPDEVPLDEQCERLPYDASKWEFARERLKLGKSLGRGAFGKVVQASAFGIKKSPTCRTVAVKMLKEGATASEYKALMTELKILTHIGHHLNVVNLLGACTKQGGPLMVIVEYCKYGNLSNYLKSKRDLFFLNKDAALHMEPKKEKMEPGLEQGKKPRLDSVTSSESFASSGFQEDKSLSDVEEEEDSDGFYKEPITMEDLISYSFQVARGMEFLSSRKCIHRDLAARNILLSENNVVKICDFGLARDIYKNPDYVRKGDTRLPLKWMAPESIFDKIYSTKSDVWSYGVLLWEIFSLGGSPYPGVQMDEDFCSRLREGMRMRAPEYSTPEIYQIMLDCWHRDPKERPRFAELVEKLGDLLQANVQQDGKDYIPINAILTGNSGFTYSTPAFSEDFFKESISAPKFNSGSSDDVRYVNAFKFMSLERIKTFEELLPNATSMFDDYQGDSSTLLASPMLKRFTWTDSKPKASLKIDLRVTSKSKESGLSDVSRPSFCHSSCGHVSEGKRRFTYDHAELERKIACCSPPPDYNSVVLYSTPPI", "source_text": "as §1"}, "[9]": {"molecular_target": "T9, FMS (Homo sapiens, UniProt P07333)", "T9 construct": "purchased Carna Biosciences", "source_text": "as §1"}, "[10]": {"molecular_target": "T10, IGF1R (Homo sapiens, UniProt P08069)", "T10 construct": "purchased Carna Biosciences", "source_text": "as §1"}, "[11]": {"molecular_target": "T11, KDR (Homo sapiens, UniProt P35968)", "T11 construct": "purchased Carna Biosciences", "source_text": "as §1"}, "[12]": {"molecular_target": "T12, BRSK2 (Homo sapiens, UniProt Q8IWQ3)", "T12 construct": "purchased Carna Biosciences", "source_text": "as §1"}, "[13]": {"molecular_target": "T13, MUSK (Homo sapiens, UniProt O15146)", "T13 construct": "purchased Carna Biosciences", "source_text": "as §1"}, "[14]": {"molecular_target": "T14, PDGFRβ (Homo sapiens, UniProt P09619)", "T14 construct": "purchased Carna Biosciences", "source_text": "as §1"}, "[15]": {"molecular_target": "T15, TEC (Homo sapiens, UniProt P42680)", "T15 construct": "purchased Carna Biosciences", "source_text": "as §1"}, "[16]": {"molecular_target": "T16, TRKA (Homo sapiens, UniProt P04629)", "T16 construct": "purchased Carna Biosciences", "source_text": "as §1"}, "[17]": {"molecular_target": "T17, TRKB (Homo sapiens, UniProt Q16620)", "T17 construct": "purchased Carna Biosciences", "source_text": "as §1"}, "[18]": {"molecular_target": "T18, TXK (Homo sapiens, UniProt P42681)", "T18 construct": "purchased Carna Biosciences", "source_text": "as §1"}, "[19]": {"molecular_target": "T19, AKT1 (Homo sapiens, UniProt P31749)", "T19 construct": "purchased Carna Biosciences", "source_text": "as §1"}, "[20]": {"molecular_target": "T20, AMPKα1/β1/γ1 (Homo sapiens, UniProt Q13131)", "T20 construct": "purchased Carna Biosciences", "source_text": "as §1"}, "[21]": {"molecular_target": "T21, BRAF_Cascade (Homo sapiens, UniProt P15056)", "T21 construct": "purchased Carna Biosciences", "source_text": "as §1"}, "[22]": {"molecular_target": "T22, CaMK1δ (Homo sapiens, UniProt Q8IU85)", "T22 construct": "purchased Carna Biosciences", "source_text": "as §1"}, "[23]": {"molecular_target": "T23, CDK4/CycD3 (Homo sapiens, UniProt P11802)", "T23 construct": "purchased Carna Biosciences", "source_text": "as §1"}, "[24]": {"molecular_target": "T24, CDK6/CycD3 (Homo sapiens, UniProt Q00534)", "T24 construct": "purchased Carna Biosciences", "source_text": "as §1"}, "[25]": {"molecular_target": "T25, MAP3K5_Cascade (Homo sapiens, UniProt Q99683)", "T25 construct": "purchased Carna Biosciences", "source_text": "as §1"}, "[26]": {"molecular_target": "T26, GSK3α (Homo sapiens, UniProt P49840)", "T26 construct": "purchased Carna Biosciences", "T26 sequence (P49840 whole entry)": "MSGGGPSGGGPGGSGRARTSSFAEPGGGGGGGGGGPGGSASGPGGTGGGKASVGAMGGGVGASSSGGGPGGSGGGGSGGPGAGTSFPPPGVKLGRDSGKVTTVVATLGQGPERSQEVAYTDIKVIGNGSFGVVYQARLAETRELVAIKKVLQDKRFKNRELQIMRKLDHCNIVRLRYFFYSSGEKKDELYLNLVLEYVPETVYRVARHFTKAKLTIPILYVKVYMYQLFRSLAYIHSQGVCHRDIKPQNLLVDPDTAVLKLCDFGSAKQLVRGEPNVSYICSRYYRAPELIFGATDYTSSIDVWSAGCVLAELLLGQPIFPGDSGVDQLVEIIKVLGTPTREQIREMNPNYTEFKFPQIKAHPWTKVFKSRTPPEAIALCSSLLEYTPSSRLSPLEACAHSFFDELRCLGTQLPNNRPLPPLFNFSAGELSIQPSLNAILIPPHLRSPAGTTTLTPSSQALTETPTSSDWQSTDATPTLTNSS"}, "[27]": {"molecular_target": "T27, HIPK2 (Homo sapiens, UniProt Q9H2X6)", "T27 construct": "purchased Carna Biosciences", "source_text": "as §1"}, "[28]": {"molecular_target": "T28, IRAK1 (Homo sapiens, UniProt P51617)", "T28 construct": "purchased Carna Biosciences", "source_text": "as §1"}, "[29]": {"molecular_target": "T29, JNK1 (Homo sapiens, UniProt P45983)", "T29 construct": "purchased Carna Biosciences", "T29 sequence (P45983 whole entry)": "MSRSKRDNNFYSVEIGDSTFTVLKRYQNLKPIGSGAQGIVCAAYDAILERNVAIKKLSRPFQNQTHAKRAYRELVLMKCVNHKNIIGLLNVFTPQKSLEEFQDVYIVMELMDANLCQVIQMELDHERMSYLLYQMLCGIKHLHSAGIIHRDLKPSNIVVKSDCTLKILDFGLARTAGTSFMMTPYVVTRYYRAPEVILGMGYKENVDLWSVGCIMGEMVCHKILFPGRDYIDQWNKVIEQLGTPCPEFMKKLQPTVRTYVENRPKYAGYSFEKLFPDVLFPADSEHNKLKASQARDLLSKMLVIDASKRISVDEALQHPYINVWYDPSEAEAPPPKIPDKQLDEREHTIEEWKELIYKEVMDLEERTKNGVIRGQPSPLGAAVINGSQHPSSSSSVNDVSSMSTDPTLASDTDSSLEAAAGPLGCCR", "source_text": "as §1"}, "[30]": {"molecular_target": "T30, JNK3 (Homo sapiens, UniProt P53779)", "T30 construct": "purchased Carna Biosciences"}, "[31]": {"molecular_target": "T31, MAP2K7_Cascade (Homo sapiens, UniProt O14733)", "T31 construct": "purchased Carna Biosciences", "source_text": "as §1"}, "[32]": {"molecular_target": "T32, MAP3K1_Cascade (Homo sapiens, UniProt Q13233)", "T32 construct": "purchased Carna Biosciences", "source_text": "as §1"}, "[33]": {"molecular_target": "T33, MNK2 (Homo sapiens, UniProt Q9HBH9)", "T33 construct": "purchased Carna Biosciences"}, "[34]": {"molecular_target": "T34, MST1 (Homo sapiens, UniProt Q13043)", "T34 construct": "purchased Carna Biosciences", "source_text": "as §1"}, "[35]": {"molecular_target": "T35, p38γ (Homo sapiens, UniProt P53778)", "T35 construct": "purchased Carna Biosciences", "source_text": "as §1"}, "[36]": {"molecular_target": "T36, PAK4 (Homo sapiens, UniProt O96013)", "T36 construct": "purchased Carna Biosciences", "source_text": "as §1"}, "[37]": {"molecular_target": "T37, PDK1 (Homo sapiens, UniProt O15530)", "T37 construct": "purchased Carna Biosciences", "source_text": "as §1"}, "[38]": {"molecular_target": "T38, PGK (Homo sapiens, UniProt Q13976)", "T38 construct": "purchased Carna Biosciences", "source_text": "as §1"}, "[39]": {"molecular_target": "T39, PKCα (Homo sapiens, UniProt P17252)", "T39 construct": "purchased Carna Biosciences"}, "[40]": {"molecular_target": "T40, WNK1 (Homo sapiens, UniProt Q9H4A3)", "T40 construct": "purchased Carna Biosciences", "source_text": "as §1"}, "[41]": {"molecular_target": "T41, PRKX (Homo sapiens, UniProt P51817)", "T41 construct": "purchased Carna Biosciences"}, "[42]": {"molecular_target": "T42, ROCK1 (Homo sapiens, UniProt Q13464)", "T42 construct": "purchased Carna Biosciences", "T42 sequence (Q13464 whole entry)": "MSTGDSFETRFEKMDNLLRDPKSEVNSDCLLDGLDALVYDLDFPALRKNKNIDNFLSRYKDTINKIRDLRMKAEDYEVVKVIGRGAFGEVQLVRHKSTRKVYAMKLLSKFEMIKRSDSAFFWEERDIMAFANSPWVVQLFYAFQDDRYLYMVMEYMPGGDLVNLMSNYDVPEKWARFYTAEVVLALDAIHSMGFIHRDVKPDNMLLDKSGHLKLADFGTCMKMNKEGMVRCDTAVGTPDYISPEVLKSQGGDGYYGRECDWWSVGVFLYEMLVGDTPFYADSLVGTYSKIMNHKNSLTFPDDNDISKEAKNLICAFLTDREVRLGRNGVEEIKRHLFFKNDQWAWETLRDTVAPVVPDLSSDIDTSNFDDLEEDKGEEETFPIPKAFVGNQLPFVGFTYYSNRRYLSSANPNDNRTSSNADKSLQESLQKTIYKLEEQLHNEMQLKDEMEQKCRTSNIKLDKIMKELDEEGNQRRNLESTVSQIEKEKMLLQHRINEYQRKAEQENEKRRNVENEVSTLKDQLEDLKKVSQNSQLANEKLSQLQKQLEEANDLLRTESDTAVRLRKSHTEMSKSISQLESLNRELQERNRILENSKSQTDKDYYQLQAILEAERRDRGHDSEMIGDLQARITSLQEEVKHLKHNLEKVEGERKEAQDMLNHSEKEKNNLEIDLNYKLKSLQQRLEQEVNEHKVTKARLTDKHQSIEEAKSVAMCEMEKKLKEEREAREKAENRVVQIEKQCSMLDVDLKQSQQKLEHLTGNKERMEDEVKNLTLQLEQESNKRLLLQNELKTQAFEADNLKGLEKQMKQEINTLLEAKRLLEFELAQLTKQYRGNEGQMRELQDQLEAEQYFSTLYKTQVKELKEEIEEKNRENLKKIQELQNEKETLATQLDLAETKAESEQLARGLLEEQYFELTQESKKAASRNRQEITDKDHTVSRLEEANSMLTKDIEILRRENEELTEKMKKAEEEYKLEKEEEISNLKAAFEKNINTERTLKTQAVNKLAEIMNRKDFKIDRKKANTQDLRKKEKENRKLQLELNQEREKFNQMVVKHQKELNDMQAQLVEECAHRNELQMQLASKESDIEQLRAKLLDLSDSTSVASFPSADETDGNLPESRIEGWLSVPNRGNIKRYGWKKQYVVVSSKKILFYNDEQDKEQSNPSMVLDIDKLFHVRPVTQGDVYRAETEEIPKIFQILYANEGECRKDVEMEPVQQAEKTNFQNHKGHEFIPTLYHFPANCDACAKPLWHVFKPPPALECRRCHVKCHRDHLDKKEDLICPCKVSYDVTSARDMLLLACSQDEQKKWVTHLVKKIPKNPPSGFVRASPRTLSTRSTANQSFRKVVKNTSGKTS"}, "[43]": {"molecular_target": "T43, SRPK2 (Homo sapiens, UniProt P78362)", "T43 construct": "purchased Carna Biosciences", "source_text": "as §1"}, "[44]": {"molecular_target": "T44, TAK1-TAB1_Cascade (Homo sapiens, UniProt O43318)", "T44 construct": "purchased Carna Biosciences", "source_text": "as §1"}},
  "data": [
    {"smiles": "COc1ccc(/C=C2\\SC(=S)NC2=O)cc1C#C[Si](C)(C)C", "note": "[FINDY]", "values": [
      {"measurement": "inhibition at 10 µM", "setting": "[1]", "value": 3, "unit": "%"},
      {"measurement": "inhibition at 10 µM", "setting": "[2]", "value": 6.7, "unit": "%"},
      {"measurement": "inhibition at 10 µM", "setting": "[3]", "value": 59.4, "unit": "%"},
      {"measurement": "inhibition at 10 µM", "setting": "[4]", "value": 13.9, "unit": "%"},
      {"measurement": "inhibition at 10 µM", "setting": "[5]", "value": 14.3, "unit": "%"},
      {"measurement": "inhibition at 10 µM", "setting": "[6]", "value": 11.4, "unit": "%"},
      {"measurement": "inhibition at 10 µM", "setting": "[7]", "value": -0.5, "unit": "%"},
      {"measurement": "inhibition at 10 µM", "setting": "[8]", "value": 6.6, "unit": "%"},
      {"measurement": "inhibition at 10 µM", "setting": "[9]", "value": 6.8, "unit": "%"},
      {"measurement": "inhibition at 10 µM", "setting": "[10]", "value": 2.4, "unit": "%"},
      {"measurement": "inhibition at 10 µM", "setting": "[11]", "value": 1.6, "unit": "%"},
      {"measurement": "inhibition at 10 µM", "setting": "[12]", "value": 5.7, "unit": "%"},
      {"measurement": "inhibition at 10 µM", "setting": "[13]", "value": 4.1, "unit": "%"},
      {"measurement": "inhibition at 10 µM", "setting": "[14]", "value": 8.2, "unit": "%"},
      {"measurement": "inhibition at 10 µM", "setting": "[15]", "value": 32, "unit": "%"},
      {"measurement": "inhibition at 10 µM", "setting": "[16]", "value": -0.6, "unit": "%"},
      {"measurement": "inhibition at 10 µM", "setting": "[17]", "value": 4.9, "unit": "%"},
      {"measurement": "inhibition at 10 µM", "setting": "[18]", "value": 23.7, "unit": "%"},
      {"measurement": "inhibition at 10 µM", "setting": "[19]", "value": 36.6, "unit": "%"},
      {"measurement": "inhibition at 10 µM", "setting": "[20]", "value": 8.6, "unit": "%"},
      {"measurement": "inhibition at 10 µM", "setting": "[21]", "value": 33.9, "unit": "%"},
      {"measurement": "inhibition at 10 µM", "setting": "[22]", "value": 7.2, "unit": "%"},
      {"measurement": "inhibition at 10 µM", "setting": "[23]", "value": 8, "unit": "%"},
      {"measurement": "inhibition at 10 µM", "setting": "[24]", "value": 3.2, "unit": "%"},
      {"measurement": "inhibition at 10 µM", "setting": "[25]", "value": 32.1, "unit": "%"},
      {"measurement": "inhibition at 10 µM", "setting": "[26]", "value": 43.4, "unit": "%"},
      {"measurement": "inhibition at 10 µM", "setting": "[27]", "value": 6.2, "unit": "%"},
      {"measurement": "inhibition at 10 µM", "setting": "[28]", "value": -1.1, "unit": "%"},
      {"measurement": "inhibition at 10 µM", "setting": "[29]", "value": 1.5, "unit": "%"},
      {"measurement": "inhibition at 10 µM", "setting": "[30]", "value": 4.5, "unit": "%"},
      {"measurement": "inhibition at 10 µM", "setting": "[31]", "value": 14.4, "unit": "%"},
      {"measurement": "inhibition at 10 µM", "setting": "[32]", "value": 44.4, "unit": "%"},
      {"measurement": "inhibition at 10 µM", "setting": "[33]", "value": 8.3, "unit": "%"},
      {"measurement": "inhibition at 10 µM", "setting": "[34]", "value": -5.2, "unit": "%"},
      {"measurement": "inhibition at 10 µM", "setting": "[35]", "value": 5, "unit": "%"},
      {"measurement": "inhibition at 10 µM", "setting": "[36]", "value": -20.1, "unit": "%"},
      {"measurement": "inhibition at 10 µM", "setting": "[37]", "value": -2.6, "unit": "%"},
      {"measurement": "inhibition at 10 µM", "setting": "[38]", "value": 2.6, "unit": "%"},
      {"measurement": "inhibition at 10 µM", "setting": "[39]", "value": 0.6, "unit": "%"},
      {"measurement": "inhibition at 10 µM", "setting": "[40]", "value": 12.6, "unit": "%"},
      {"measurement": "inhibition at 10 µM", "setting": "[41]", "value": 3, "unit": "%"},
      {"measurement": "inhibition at 10 µM", "setting": "[42]", "value": 6.8, "unit": "%"},
      {"measurement": "inhibition at 10 µM", "setting": "[43]", "value": -5, "unit": "%"},
      {"measurement": "inhibition at 10 µM", "setting": "[44]", "value": 52.7, "unit": "%"}
    ]}
  ]
}
